In patent US11834489B2 (priority 2017, dated 2023):

Experiments:
[1] = biological target: Cy3B*/Cy7*-labelled β2Δ6-N148C/L266C with Gs(GDP) (Homo sapiens, UniProt P07550, C265A/C327S/C341L/C378A/C406A/C77V/L266C/N148C); type: biochemical; conditions: transition rate from high- to low-FRET states; saturating ligand, 30 μM GDP, Gs titration
[2] = biological target: labelled β2AR and biotinylated Gs (Homo sapiens, UniProt P07550, C265A/C327S/C341L/C378A/C406A/C77V/L266C/N148C); type: biochemical; conditions: mean ± s.e.m.
β2AR-Gs complex = β2AR-Gs complex (Homo sapiens, UniProt P07550, C265A/C327S/C341L/C378A/C406A/C77V/L266C/N148C); type: biochemical; conditions: normalized to adrenaline
β2AR = conditions: compared to salbutamol, reference 27; cited from earlier work

- khigh→low [1]: 0.7 s⁻¹
- Lifetime, Biotin-Gs-immobilized, +GDP ([2]; after addition of 30 μM GDP): 11.8 ± 1.2 s
- Lifetime, Biotin-Gs-immobilized, +GTP ([2]; after addition of 100 μM GTP): 6.4 ± 0.1 s
- Lifetime, M1-immobilized ([2]; biotin-M1-Fab-immobilized β2AR in the absence of Gs): 13.2 ± 3.4 min
- Lifetime, Biotin-Gs-immobilized, GNP-free ([2]; nucleotide-free state): 11.2 ± 5.1 min
- η2 (β2AR-Gs complex; apparent EC50 for GDP binding): 1.0
- η1 (β2AR-Gs complex; product of apparent kon and khigh→low): 1.0
Structure (SMILES): CNCC(O)c1ccc(O)c(O)c1 (centres unmarked) [ADR, adrenaline]
- extent of [3H]GDP release (β2AR): greater extent of [^3H]GDP release
